In ChEMBL document CHEMBL1201862, “PubChem BioAssay data set” (2004):
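Step 1: Grow cells in 96-well plates. Step 2: Expose to compound for 48 hours at 5 concentrations. Step 3: Interpolate endpoints linearly; if unreached, use highest concentration. GI50 is the concentration that inhibits growth by half.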 Active and inactive are the calls of the source. Cut-off read from the data, not from the text of the source: active = GI50 up to about 1.1 µM and inactive = higher.

Legend:
Test in all cases: inhibition of tumour cell growth, NCI panel, 48 h
[1] = tested on: MOLT-4
[2] = tested on: CAKI-1
[3] = tested on: A549
[4] = tested on: OVCAR-4
[5] = tested on: HT-29
[6] = tested on: NCI-H226
[7] = tested on: UO-31
[8] = tested on: MDA-N
[9] = tested on: UACC-62
[10] = tested on: HCC 2998
[11] = tested on: TK-10
[12] = tested on: NCI-H460
[13] = tested on: OVCAR-8
[14] = tested on: SNB-75
[15] = tested on: ACHN
[16] = tested on: RPMI-8226
[17] = tested on: SF-539
[18] = tested on: SW-620
[19] = tested on: M14
[20] = tested on: NCI/ADR-RES

Row | SMILES | GI50 [1] | GI50 [2] | GI50 [3] | GI50 [4] | GI50 [5] | GI50 [6] | GI50 [7] | GI50 [8] | GI50 [9] | GI50 [10] | GI50 [11] | GI50 [12] | GI50 [13] | GI50 [14] | GI50 [15] | GI50 [16] | GI50 [17] | GI50 [18] | GI50 [19] | GI50 [20]
1 | C#CCCCCC#Cc1ccccc1C(=O)C=[N+]=[N-] | > 100 µM (inactive) | > 100 µM (inactive) | > 100 µM (inactive) | > 100 µM (inactive) | > 100 µM (inactive) | > 100 µM (inactive) | > 100 µM (inactive) | > 100 µM (inactive) | > 100 µM (inactive) | > 100 µM (inactive) | > 100 µM (inactive) | > 100 µM (inactive) | > 100 µM (inactive) | 95.1 µM (inactive) | > 100 µM (inactive) | 16.5 µM (inactive) | > 100 µM (inactive) | > 100 µM (inactive) | > 100 µM (inactive) | –
2 | CC(=O)N1c2ccccc2[C@H]2CCc3c([nH]c4ccccc34)[C@H]21 | 11.2 µM (inactive) | 15.6 µM (inactive) | 17.2 µM (inactive) | – | 8.11 µM (inactive) | 13.9 µM (inactive) | 6.31 µM (inactive) | 18.5 µM (inactive) | 12.3 µM (inactive) | – | 41.5 µM (inactive) | 8.39 µM (inactive) | 25.3 µM (inactive) | 18.4 µM (inactive) | 16 µM (inactive) | 6.27 µM (inactive) | 11.8 µM (inactive) | 12 µM (inactive) | 14.3 µM (inactive) | 23.3 µM (inactive)
3 | COC(=O)C(/C(=N/NC(=O)c1ccncc1)C(=O)Nc1ccccc1OC)c1nc2ccc(Cl)cc2nc1O (configuration not stated) | > 100 µM (inactive) | > 100 µM (inactive) | > 100 µM (inactive) | 55 µM (inactive) | > 100 µM (inactive) | 22.2 µM (inactive) | 47 µM (inactive) | 47.2 µM (inactive) | > 100 µM (inactive) | – | > 100 µM (inactive) | > 100 µM (inactive) | > 100 µM (inactive) | > 100 µM (inactive) | > 100 µM (inactive) | 75.5 µM (inactive) | > 100 µM (inactive) | > 100 µM (inactive) | > 100 µM (inactive) | > 100 µM (inactive)
4 | COc1ccc(OC2(c3cc(OC)ccc3OC)OC(=O)c3ccccc32)cc1 (configuration not stated) | > 100 µM (inactive) | > 100 µM (inactive) | > 100 µM (inactive) | > 100 µM (inactive) | > 100 µM (inactive) | > 100 µM (inactive) | > 100 µM (inactive) | – | > 100 µM (inactive) | > 100 µM (inactive) | > 100 µM (inactive) | > 100 µM (inactive) | > 100 µM (inactive) | > 100 µM (inactive) | > 100 µM (inactive) | > 100 µM (inactive) | > 100 µM (inactive) | > 100 µM (inactive) | > 100 µM (inactive) | –
5 | CC/C(=C\c1ccc(Cl)c(Cl)c1)[N+](=O)[O-] | 0.236 µM (active) | – | 2.1 µM (inactive) | 3 µM (inactive) | 3.4 µM (inactive) | 2.23 µM (inactive) | 1.88 µM (inactive) | – | 1.93 µM (inactive) | 1.7 µM (inactive) | 1.94 µM (inactive) | 2.42 µM (inactive) | 1.68 µM (inactive) | 3.84 µM (inactive) | 1.75 µM (inactive) | 1.92 µM (inactive) | 1.89 µM (inactive) | 3.03 µM (inactive) | 1.45 µM (inactive) | 2.27 µM (inactive)
6 | Cn1c(=O)nc2n(-c3ccc(Cl)cc3)c(-c3ccccc3)c(-c3ccccc3)nc-2c1=O | 16.5 µM (inactive) | 24.8 µM (inactive) | 31.1 µM (inactive) | 29.5 µM (inactive) | 32.1 µM (inactive) | 19.2 µM (inactive) | 18.4 µM (inactive) | – | 14.5 µM (inactive) | 47.2 µM (inactive) | 51.2 µM (inactive) | 24.7 µM (inactive) | 37.5 µM (inactive) | 23.2 µM (inactive) | 19.9 µM (inactive) | 22.1 µM (inactive) | 23 µM (inactive) | 40.7 µM (inactive) | 20 µM (inactive) | –
7 | COc1ccc(-c2cc(=O)c3c(O)c(O)c(OC)cc3o2)cc1O | > 100 µM (inactive) | > 100 µM (inactive) | > 100 µM (inactive) | > 100 µM (inactive) | > 100 µM (inactive) | > 100 µM (inactive) | > 100 µM (inactive) | – | > 100 µM (inactive) | > 100 µM (inactive) | > 100 µM (inactive) | 57.9 µM (inactive) | > 100 µM (inactive) | 31.5 µM (inactive) | > 100 µM (inactive) | > 100 µM (inactive) | > 100 µM (inactive) | > 100 µM (inactive) | > 100 µM (inactive) | –
8 | CC1=C2C(=CC(C)(C)[C@@H]2O)C(=O)[C@](C)(O)C12CC2 [ILLUDIN M] | 0.01 µM (active) | 0.0209 µM (active) | 0.0275 µM (active) | < 0.0112 µM (active) | < 0.0126 µM (active) | 0.0619 µM (active) | 0.0246 µM (active) | 0.0171 µM (active) | 0.0208 µM (active) | < 0.0117 µM (active) | < 0.0182 µM (active) | 0.01 µM (active) | < 0.018 µM (active) | 0.0165 µM (active) | < 0.011 µM (active) | 0.839 µM (active) | 0.0184 µM (active) | 0.013 µM (active) | 0.0156 µM (active) | –
9 | COc1cc2c(c(OC)c1OC)C(=O)NCCC2 | > 100 µM (inactive) | > 100 µM (inactive) | > 100 µM (inactive) | > 100 µM (inactive) | > 100 µM (inactive) | > 100 µM (inactive) | > 100 µM (inactive) | – | > 100 µM (inactive) | > 92.9 µM (inactive) | > 100 µM (inactive) | > 100 µM (inactive) | > 100 µM (inactive) | 69.7 µM (inactive) | > 100 µM (inactive) | > 100 µM (inactive) | > 100 µM (inactive) | > 100 µM (inactive) | > 100 µM (inactive) | > 100 µM (inactive)
10 | N[C@@H]1CCN(c2c(F)cc3c(=O)c(C(=O)O)cn4c3c2Oc2cc3c(ccc5ccccc53)cc2-4)C1 | 0.515 µM (active) | 6.27 µM (inactive) | 3.29 µM (inactive) | 4.36 µM (inactive) | 0.585 µM (active) | 6.58 µM (inactive) | 5.2 µM (inactive) | 3.01 µM (inactive) | 7.6 µM (inactive) | – | 1.45 µM (inactive) | 0.735 µM (active) | 1.7 µM (inactive) | 2.89 µM (inactive) | 1.54 µM (inactive) | 4.3 µM (inactive) | 3.37 µM (inactive) | 1.41 µM (inactive) | 8.79 µM (inactive) | > 79.3 µM (inactive)
11 | CCOC(OC1=C(C#N)CCCC1)C(C)[Se]c1ccccc1 (configuration not stated) | 29 µM (inactive) | 65.2 µM (inactive) | 84.3 µM (inactive) | 21.7 µM (inactive) | 52.6 µM (inactive) | 30.7 µM (inactive) | 43.6 µM (inactive) | – | 19.2 µM (inactive) | > 100 µM (inactive) | > 100 µM (inactive) | 54.1 µM (inactive) | 24.3 µM (inactive) | 36.9 µM (inactive) | 44.5 µM (inactive) | 28.3 µM (inactive) | 18.1 µM (inactive) | – | 28.9 µM (inactive) | –
12 | CC[C@@H]1/C=C/C=C/C[C@H](C)[C@@H](O)[C@](C)(O)C(=O)[C@H](C)[C@@H](O)[C@H](C)C(=O)[C@H](C)[C@@H](O)[C@H](C)/C=C/C(=O)O[C@H]2[C@@H](C)[C@@H](CC1)O[C@@]1(CC[C@@H](C)[C@@H](CC(C)O)O1)[C@@H]2C (some centres not stated) | 1.3 µM (inactive) | 1.73 µM (inactive) | < 0.01 µM (active) | – | 1.36 µM (inactive) | – | 0.0307 µM (active) | 1.61 µM (inactive) | 1.71 µM (inactive) | 1.52 µM (inactive) | 1.65 µM (inactive) | 0.499 µM (active) | < 0.01 µM (active) | – | 1.35 µM (inactive) | < 0.0162 µM (active) | 3.58 µM (inactive) | 2.92 µM (inactive) | 1.24 µM (inactive) | –
13 | COC(=O)[C@H]1[C@H]2C[C@@H]3c4[nH]c5cc(OC)ccc5c4CCN3C[C@H]2C[C@@H](OC(=O)c2cc(OC)c(OC)c(OC)c2)[C@@H]1OC [RESERPINE] | 7.19 µM (inactive) | 18.1 µM (inactive) | 18 µM (inactive) | 12.7 µM (inactive) | 12 µM (inactive) | 19.6 µM (inactive) | 15.1 µM (inactive) | – | 13.3 µM (inactive) | 27.8 µM (inactive) | 17.5 µM (inactive) | 18.9 µM (inactive) | 19.6 µM (inactive) | 2.7 µM (inactive) | 15 µM (inactive) | 6.9 µM (inactive) | 11.6 µM (inactive) | 26.8 µM (inactive) | 15.4 µM (inactive) | –
14 | COc1cc([C@H]2c3cc4c(cc3[C@H](NCc3ccc([N+](=O)[O-])cc3)C3COC(=O)[C@H]32)OCO4)cc(OC)c1O (some centres not stated) | 0.106 µM (active) | 0.424 µM (active) | 0.213 µM (active) | 72.8 µM (inactive) | 2.17 µM (inactive) | 0.324 µM (active) | 1.79 µM (inactive) | – | 1.07 µM (active) | 1.23 µM (inactive) | 1.96 µM (inactive) | < 0.0282 µM (active) | 1.63 µM (inactive) | 1.45 µM (inactive) | 0.378 µM (active) | 0.938 µM (active) | 0.745 µM (active) | 1.03 µM (active) | 1.97 µM (inactive) | –
15 | COc1ccccc1C1(c2c(OC(C)C)c(=O)c2=O)SCCCS1 | > 100 µM (inactive) | > 100 µM (inactive) | > 100 µM (inactive) | > 100 µM (inactive) | > 100 µM (inactive) | > 100 µM (inactive) | > 100 µM (inactive) | > 100 µM (inactive) | > 100 µM (inactive) | – | > 100 µM (inactive) | > 100 µM (inactive) | > 100 µM (inactive) | 90.4 µM (inactive) | > 100 µM (inactive) | – | > 100 µM (inactive) | > 100 µM (inactive) | > 100 µM (inactive) | > 100 µM (inactive)
